Assay results taken from US20260355192A1, “PROPHYLACTIC OR THERAPEUTIC AGENT FOR PERIOSTIN-MEDIATED DISEASE AND PRURITUS ASSOCIATED THEREWITH” (SAGA UNIVERSITY, priority 2022, published 2026).

B1: Periostin: extracellular matrix protein that binds to cell surface receptors belonging to the integrin family (protein, UniProt Q15063 22-836, looked up)
Periostin: NNHYDKILAHSRIRGRDQGPNVCALQQILGTKKKYFSTCKNWYKKSICGQKTTVLYECCPGYMRMEGMKGCPAVLPIDHVYGTLGIVGATTTQRYSDASKLREEIEGKGSFTYFAPSNEAWDNLDSDIRRGLESNVNVELLNALHSHMINKRMLTKDLKNGMIIPSMYNNLGLFINHYPNGVVTVNCARIIHGNQIATNGVVHVIDRVLTQIGTSIQDFIEAEDDLSSFRAAAITSDILEALGRDGHFTLFAPTNEAFEKLPRGVLERIMGDKVASEALMKYHILNTLQCSESIMGGAVFETLEGNTIEIGCDGDSITVNGIKMVNKKDIVTNNGVIHLIDQVLIPDSAKQVIELAGKQQTTFTDLVAQLGLASALRPDGEYTLLAPVNNAFSDDTLSMDQRLLKLILQNHILKVKVGLNELYNGQILETIGGKQLRVFVYRTAVCIENSCMEKGSKQGRNGAIHIFREIIKPAEKSLHEKLKQDKRFSTFLSLLEAADLKELLTQPGDWTLFVPTNDAFKGMTSEEKEILIRDKNALQNIILYHLTPGVFIGKGFEPGVTNILKTTQGSKIFLKEVNDTLLVNELKSKESDIMTTNGVIHVVDKLLYPADTPVGNDQLLEILNKLIKYIQIKFVRGSTFKEIPVTVYTTKIITKVVEPKIKVIEGSLQPIIKTEGPTLTKVKIEGEPEFRLIKEGETITEVIHGEPIIKKYTKIIDGVPVEITEKETREERIITGPEIKYTRISTGGGETEETLKKLLQEEVTKVTKFIEGGDGHLFEDEEIKRLLQGDTPVRKLQANKKVQGSRRRLREGRSQ

Legend:
[1] = test system: integrin αvβ3; settings: cited from earlier work
[2] = target: T1, integrin αvβ3 (Homo sapiens, UniProt P05106+P06756); experiment: Inhibition of periostin-dependent adhesion of SW480 cells expressing integrin αvβ3; type: cell-based; settings: immobilized recombinant human periostin, FIG. 6; for IC50: SW480 cells expressing human integrin β3, compounds at 0.001-1 μM, read-out: 50% inhibition concentration (IC50 value) for cell adhesion inhibitory activity; for cell adhesion inhibitory effect (in words): SW480 cells expressing integrin αvβ3
T1 construct: SW480 cells, a human colon cancer cell line not expressing integrin β3; expressed in transfected cells; host or cells: SW480 cells (human colon cancer) stably expressing human integrin β3
T1 sequence (P06756 31-889 limits assumed): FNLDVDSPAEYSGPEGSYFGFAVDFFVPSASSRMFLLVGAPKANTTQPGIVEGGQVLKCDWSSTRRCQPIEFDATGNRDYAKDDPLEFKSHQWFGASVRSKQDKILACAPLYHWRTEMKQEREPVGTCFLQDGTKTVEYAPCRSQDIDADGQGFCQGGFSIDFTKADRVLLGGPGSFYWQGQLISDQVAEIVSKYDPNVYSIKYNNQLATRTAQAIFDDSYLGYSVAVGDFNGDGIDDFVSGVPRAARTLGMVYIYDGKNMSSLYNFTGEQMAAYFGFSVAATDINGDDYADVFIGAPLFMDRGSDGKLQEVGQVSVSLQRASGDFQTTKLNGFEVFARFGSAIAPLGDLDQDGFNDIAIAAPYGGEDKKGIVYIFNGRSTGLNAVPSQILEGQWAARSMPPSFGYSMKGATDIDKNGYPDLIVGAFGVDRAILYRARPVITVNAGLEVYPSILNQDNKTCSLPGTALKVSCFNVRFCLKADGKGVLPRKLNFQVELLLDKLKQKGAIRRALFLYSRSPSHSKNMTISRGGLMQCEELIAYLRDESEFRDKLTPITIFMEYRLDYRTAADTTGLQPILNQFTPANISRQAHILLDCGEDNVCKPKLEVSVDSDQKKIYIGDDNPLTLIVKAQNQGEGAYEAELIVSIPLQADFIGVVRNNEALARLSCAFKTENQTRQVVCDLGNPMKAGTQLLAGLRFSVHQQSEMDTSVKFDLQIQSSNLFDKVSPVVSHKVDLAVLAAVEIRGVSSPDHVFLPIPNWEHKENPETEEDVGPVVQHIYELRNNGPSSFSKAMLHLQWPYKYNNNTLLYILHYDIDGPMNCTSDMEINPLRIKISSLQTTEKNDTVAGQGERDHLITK
T1 sequence (P06756 891-1048 partner limits assumed): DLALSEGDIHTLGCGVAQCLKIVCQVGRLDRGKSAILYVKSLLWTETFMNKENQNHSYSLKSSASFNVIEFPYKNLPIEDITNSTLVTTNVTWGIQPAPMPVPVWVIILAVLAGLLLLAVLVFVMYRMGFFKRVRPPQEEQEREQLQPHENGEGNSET
T1 sequence (P05106 27-788): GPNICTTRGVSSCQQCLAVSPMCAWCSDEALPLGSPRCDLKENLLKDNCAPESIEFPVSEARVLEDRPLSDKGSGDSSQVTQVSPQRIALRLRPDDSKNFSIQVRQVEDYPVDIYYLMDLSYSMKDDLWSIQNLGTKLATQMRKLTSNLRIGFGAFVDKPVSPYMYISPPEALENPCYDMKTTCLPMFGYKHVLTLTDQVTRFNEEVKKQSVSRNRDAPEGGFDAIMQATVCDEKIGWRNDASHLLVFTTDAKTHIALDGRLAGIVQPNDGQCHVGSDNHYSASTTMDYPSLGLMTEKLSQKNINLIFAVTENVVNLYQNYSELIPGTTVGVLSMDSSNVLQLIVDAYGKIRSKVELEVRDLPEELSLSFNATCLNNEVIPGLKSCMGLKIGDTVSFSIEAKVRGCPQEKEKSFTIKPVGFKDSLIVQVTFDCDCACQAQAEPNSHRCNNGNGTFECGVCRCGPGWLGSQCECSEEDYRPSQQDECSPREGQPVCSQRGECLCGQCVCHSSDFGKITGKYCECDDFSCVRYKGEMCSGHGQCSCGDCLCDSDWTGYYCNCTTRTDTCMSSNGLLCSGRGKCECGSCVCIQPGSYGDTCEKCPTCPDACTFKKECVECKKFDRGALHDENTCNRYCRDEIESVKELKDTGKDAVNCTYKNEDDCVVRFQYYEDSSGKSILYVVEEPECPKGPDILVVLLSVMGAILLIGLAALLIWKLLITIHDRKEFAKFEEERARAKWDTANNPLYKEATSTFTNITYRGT
Procedure: For use in cell adhesion experiments, SW480 cells, a human colon cancer cell line not expressing integrin β3, were genetically engineered to stably express human integrin β3 (Nanri Y, et al. Am J Respir Cell Mol Biol. 62:204-216, 2020). The compounds shown in Table 1 were examined for their inhibitory activity against adhesion between integrin αvβ3 and periostin according to the following procedures. First, a 96-well plate was treated with 10 μg/mL recombinant human periostin (Bio-Techne) at 4 °C for 16 hours to immobilize periostin. The SW480 cells expressing integrin αvβ3 (5×10^4 cells) were reacted at room temperature for 15 minutes with the above compounds at 0.001, 0.01, 0.1 and 1 μM in serum-free DMEM (Dulbecco's Modified Eagle Medium) containing 0.5% bovine serum albumin and 0.25 mM MnCl2. A group receiving no compound was used as a control. The reacted cell suspensions were added to separate wells of the above human periostin-immobilized plate, and the plate was centrifuged at 10×g for 5 minutes and then cultured at 37 °C for 60 minutes. Then, after the adhered cells were washed to remove unbound cells, the adhered cells were fixed with 1% formaldehyde and stained with 0.5% crystal violet. The fixed and stained cells were solubilized with 0.2% Triton X-100 and measured for absorbance at 595 nm. The absorbance of the control (i.e., the group receiving no compound) was set to 0% inhibition. […] Cell adhesion in this test system is periostin-dependent, and a compound inhibiting this cell adhesion can be referred to as a periostin receptor antagonist.

[3] = test system: integrin αvβ3; settings: Nanri Y, et al. 2020; cited from earlier work
[4] = test system: scratching behaviors in FADS mice; experiment: Scratching behaviors in FADS mice upon single systemic administration of αvβ3 integrin inhibitors; type: in vivo, mouse (FADS, Nestin-cre/Ikk2ff); settings: for % Change from baseline in the number of scratchings (mean ± standard error): single, 60 minutes after administration vs before administration
Excerpt: Nestin-cre transgenic mice were crossed with IKK2^ff mice to prepare Nestin-cre/Ikk2^ff mice specifically lacking IKK2 in their facial skin fibroblasts (Nunomura S, et al. J Invest Dermatol. 139:1274-1283, 2019). These mice inevitably develop atopic dermatitis-like rash limited to the face and intense itchy symptoms, and were therefore designated as Facial Atopic Dermatitis with Scratching (FADS) mice. […] For evaluation of the prophylactic or therapeutic agent of the present invention, FADS mice at 3 to 4 weeks of age or older were used because of showing spontaneous scratching behaviors. It should be noted that in this Example section, the above compound of formula (I) (more particularly “CP4715”) was used as the prophylactic or therapeutic agent of the present invention.
FADS mice were acclimated for 20 minutes to the environment of a recording cage, and then recorded with a video camera. The recorded videos were replayed, and scratching behaviors were counted assuming that hind paw scratching to the face and the subsequent movement of toe licking or paw lowering to the ground were regarded as one cycle of scratching behavior.
(§1) Prior to the administration of the above αvβ3 integrin inhibitors, FADS mice were recorded for 60 minutes with a video camera and then allowed to rest for 15 minutes. The compounds except for GLPG-0187 were each dissolved at 89.5 mM in a diluent (physiological saline containing 50% DMSO and 89.5 mM HCL), from which an amount corresponding to 53.7 μmol/kg per mouse was then taken and diluted with 0.3 mL of PBS, and then administered intraperitoneally. […] Mice administered with 0.3 mL of PBS containing an equal amount of the diluent as calculated based on the body weight were used as a control group.
The mice were recorded for 60 minutes with a video camera immediately after administration of the above αvβ3 integrin inhibitors. The number of scratchings before administration was used as a baseline, and % change from the baseline after administration was calculated for each compound. For statistical analysis, paired t-test was used. A P-value of less than 0.05 was considered to be statistically significant. The effect of an inhibitor whose mean change from the baseline was −65% or more at a P-value of less than 0.01 was expressed as “++”; the effect of an inhibitor whose mean change from the baseline was −60% or less at a P-value of less than 0.05 was expressed as “+”; and the effect of an inhibitor whose mean change from the baseline was −60% or less at a P-value of 0.05 or higher was expressed as “−.”

[5] = Solubility in the diluent; type: physicochemical; settings: diluent: physiological saline containing 50% DMSO and 89.5 mM HCl
Procedure: as §1

[6] = test system: scratching behaviors; settings: intracutaneous or subcutaneous administration; Non-patent Document 2; cited from earlier work

| Molecule | inhibition of binding between integrin αvβ3 and vitronectin [1] | IC50 [2] [nM] | cell adhesion inhibitory effect (in words) [2] | inhibition of binding between integrin αvβ3 and periostin [3] | % Change from baseline in the number of scratchings (mean ± standard error) ([4]; 53.7 μmol/kg i.p.) [%] | grade of effect on % change from the baseline in the number of scratchings ([4]; single i.p., 53.7 μmol/kg (GLPG-0187 5.37 μmol/kg), paired t-test) | % Change from baseline in the number of scratchings (mean ± standard error) ([4]; 5.37 μmol/kg i.p.) [%] | solubility [5] | induction of scratching behaviors [6] |
| --- | --- | --- | --- | --- | --- | --- | --- | --- | --- |
| O=C(NC[C@H](NS(=O)(=O)c1ccccc1)C(=O)O)c1ccc(N2CCC[C@H](NC3=NCCCN3)C2)cc1 [CP derivative 6, (S)-2-(Phenylsulfonamido)-3-(4-((S)-3-((1,4,5,6-tetrahydropyrimidin-2-yl)amino)piperidin-1-yl)benzamido)propanoic acid] | inhibit binding | ≤ 1 | high | inhibit binding | −77.8 ± 7.9 | ++ (mean change from the baseline was −65% or more at a P-value of less than 0.01) |  |  |  |
| COc1ccc(S(=O)(=O)N[C@@H](CNc2nc(C)nc(N3CCC(c4ccc5c(n4)NCCC5)CC3)c2C)C(=O)O)cc1 [GLPG-0187, (S)-3-((2,5-dimethyl-6-(4-(5,6,7,8-tetrahydro-1,8-naphthyridin-2-yl)piperidin-1-yl)pyrimidin-4-yl)amino)-2-((4-methoxyphenyl)sulfonamido)propanoic acid] |  | ≤ 1 | high |  |  |  | −38.9 ± 31.2 | low solubility |  |
| B1 |  |  |  |  |  |  |  |  | induce scratching behaviors |
